These results are taken from ChEMBL document CHEMBL1134412, “(4-Piperidin-1-yl)phenyl amides: potent and selective human beta(3) agonists” (J Med Chem, 2001).

The structures appear in SMILES notation.

As a reminder, the Ki is the equilibrium dissociation constant of an inhibitor or competing ligand from its target. Higher therefore signals a looser hold on the target. The term EC50 denotes the concentration that produces a half-maximal response. Higher therefore signals a need for much substance.

Experiment [1] deals with T1, Beta-1 adrenergic receptor (Homo sapiens, UniProt P08588). In words: Inhibition of I-iodocyanopindolol binding to human beta 1 adrenergic receptors.
Target sequence in this assay (P08588 whole entry): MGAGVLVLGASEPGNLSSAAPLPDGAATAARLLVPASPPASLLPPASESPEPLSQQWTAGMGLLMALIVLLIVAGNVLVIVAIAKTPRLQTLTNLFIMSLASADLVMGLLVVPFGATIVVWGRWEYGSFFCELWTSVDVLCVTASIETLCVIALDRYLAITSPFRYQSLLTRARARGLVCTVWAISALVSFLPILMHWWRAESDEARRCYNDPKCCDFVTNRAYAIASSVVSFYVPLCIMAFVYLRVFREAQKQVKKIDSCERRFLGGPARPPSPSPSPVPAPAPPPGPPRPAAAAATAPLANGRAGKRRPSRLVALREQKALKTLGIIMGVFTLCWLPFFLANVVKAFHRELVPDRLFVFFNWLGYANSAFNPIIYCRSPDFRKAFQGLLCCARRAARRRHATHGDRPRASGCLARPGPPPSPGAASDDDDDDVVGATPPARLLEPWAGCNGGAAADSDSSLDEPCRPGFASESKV
Experiment [2] deals with T2, Beta-2 adrenergic receptor (Homo sapiens, UniProt P07550).
Target sequence in this assay (P07550 whole entry): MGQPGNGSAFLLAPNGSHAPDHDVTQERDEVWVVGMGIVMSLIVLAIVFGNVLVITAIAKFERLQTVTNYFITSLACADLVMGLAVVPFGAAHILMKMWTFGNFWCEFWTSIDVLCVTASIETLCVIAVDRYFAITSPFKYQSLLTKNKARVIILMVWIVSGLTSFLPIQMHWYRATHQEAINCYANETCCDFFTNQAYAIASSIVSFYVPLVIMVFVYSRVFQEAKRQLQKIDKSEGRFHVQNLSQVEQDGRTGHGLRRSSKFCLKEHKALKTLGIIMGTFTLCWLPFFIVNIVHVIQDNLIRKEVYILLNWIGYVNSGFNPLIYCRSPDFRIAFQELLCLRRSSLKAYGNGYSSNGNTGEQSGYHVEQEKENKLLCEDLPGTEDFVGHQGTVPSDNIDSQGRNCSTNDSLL
Description: Inhibition of I-iodocyanopindolol binding to human beta 2 adrenergic receptors
In experiment [3] the target is T3, Beta-3 adrenergic receptor (Homo sapiens, UniProt P13945). In words: Compound was tested for increased thermogenesis using beta-3 human transgenic mice.
Target sequence in this assay (P13945 whole entry, looked up): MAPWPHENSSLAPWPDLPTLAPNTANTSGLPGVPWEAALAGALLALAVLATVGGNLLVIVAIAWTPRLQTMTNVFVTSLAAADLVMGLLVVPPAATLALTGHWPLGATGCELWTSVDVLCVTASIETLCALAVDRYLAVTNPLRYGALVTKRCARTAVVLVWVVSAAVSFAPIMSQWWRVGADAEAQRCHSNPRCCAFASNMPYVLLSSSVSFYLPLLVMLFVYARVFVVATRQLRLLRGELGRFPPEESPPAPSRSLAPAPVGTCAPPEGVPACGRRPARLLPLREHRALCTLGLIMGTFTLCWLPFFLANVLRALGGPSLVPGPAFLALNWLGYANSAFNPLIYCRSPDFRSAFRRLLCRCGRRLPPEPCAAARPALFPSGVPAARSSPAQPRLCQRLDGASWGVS
Experiment [4] has as its target T1, Beta-1 adrenergic receptor. Briefly: In vitro activity to increase cAMP levels in Chinese hamster ovary (CHO) cells expressing the cloned human beta 1 Adrenergic receptor. Type of experiment: cell-based. (Changes in cAMP serve as a functional read-out for many G protein-coupled receptors.)
Target sequence in this assay (P08588 whole entry): as the sequence (P08588 whole entry) above
The target in experiment [5] is T2, Beta-2 adrenergic receptor. Briefly: Increased cAMP levels of Chinese hamster ovary (CHO) cells expressing human beta 2 adrenergic receptors. It counts as functional, cell-based.
Target sequence in this assay (P07550 whole entry): as the sequence (P07550 whole entry) above
The target of experiment [6] is T1, Beta-1 adrenergic receptor. Briefly: Increased cAMP levels of Chinese hamster ovary (CHO) cells expressing human beta 1 Adrenergic receptor. It counts as functional, cell-based.
Target sequence in this assay (P08588 whole entry): as the sequence (P08588 whole entry) above
Experiment [7] has as its target T3, Beta-3 adrenergic receptor. In words: In vitro increase in cAMP levels in Chinese hamster ovary cells expressing the human cloned beta 3 Adrenergic receptor. Type of experiment: functional, cell-based.
Target sequence in this assay (P13945 whole entry): as the sequence (P13945 whole entry, looked up) above
Experiment [8] concerns the target T3, Beta-3 adrenergic receptor. In words: Intrinsic activity to increase cAMP levels in Chinese hamster ovary (CHO) cells expressing the cloned human beta 3 Adrenergic receptor. Type of experiment: cell-based.
Target sequence in this assay (P13945 whole entry, looked up): as above
Experiment [9] has as its target T1, Beta-1 adrenergic receptor. Briefly: Intrinsic activity to increase cAMP levels in Chinese hamster ovary (CHO) cells expressing the cloned human beta 1 Adrenergic receptor. Type of experiment: cell-based.
Target sequence in this assay (P08588 whole entry, looked up): as the sequence (P08588 whole entry) above
Experiment [10] deals with T2, Beta-2 adrenergic receptor. Briefly: Intrinsic activity to increase cAMP levels in Chinese hamster ovary (CHO) cells expressing the cloned human beta 2 adrenergic receptors. It counts as cell-based.
Target sequence in this assay (P07550 whole entry, looked up): as the sequence (P07550 whole entry) above

Consider `CCCCCCNC(=O)Nc1ccc(S(=O)(=O)Nc2ccc(CCNC[C@H](O)COc3ccc(O)cc3)cc2)cc1` [L-755507], for which the Ki came to 570 nM in experiment [1] and 160 nM in [2]. In [3], this compound returned a Thermogenesis of 28%. For the same compound, the results for the EC50 in experiment [4] and in experiment [5] were 330 nM and 20 nM, respectively.

Consider `CC(C)C[C@H](NC(=O)c1ccc(N2CCC(NC[C@H](O)c3ccc(O)c(NS(C)(=O)=O)c3)CC2)cc1)C(=O)O`, for which the Ki in experiment [1] is > 100000 nM; in experiment [2], 3400 nM. In addition, in [3], the Thermogenesis was 53%. In addition, the half-maximal effective concentration (EC50) in [6] was 60 nM; in experiment [7], 8 nM; in experiment [5], 80 nM.

In the case of `CCCCN(c1ccc(N2CCC(NC[C@H](O)c3ccc(O)c(NS(C)(=O)=O)c3)CC2)cc1)S(=O)(=O)CC(=O)O`, the IA in [8] was found to be 1; in [9], 0.51; in experiment [10] it was 0.45. The EC50 stood at 2000 nM in experiment [4], 4 nM in [7] and 5000 nM in [5].

`CS(=O)(=O)Nc1cc([C@@H](O)CNC2CCN(c3ccc(C(=O)NCC(=O)O)cc3)CC2)ccc1O`: the Ki was > 100000 nM in experiment [1] and 11600 nM in experiment [2]. Also, the Thermogenesis in [3] was found to be 51%. Besides, the concentration for a half-maximal effect (EC50) in experiment [6] was 50 nM; in experiment [7], 60 nM; in experiment [5] it was 40 nM.

Take `CCOC(=O)CNC(=O)c1ccc(N2CCC(NC[C@H](O)c3ccc(O)c(NS(C)(=O)=O)c3)CC2)cc1`: the 50% effective concentration (EC50) in [6] stood at 4500 nM; in [7], 15 nM; in [5] it was 3200 nM.

Turning to `CS(=O)(=O)Nc1cc([C@@H](O)CNC2CCN(c3ccc(C(=O)N4CCC[C@H]4C(=O)O)cc3)CC2)ccc1O`, the EC50 in experiment [5] was 20 nM.

Take `CS(=O)(=O)Nc1cc([C@@H](O)CNC2CCN(c3ccc(COCC(=O)O)cc3)CC2)ccc1O`: the EC50 in experiment [6] turned out to be 1600 nM; in experiment [7], 66 nM; in experiment [5] it was 6000 nM.

For `CS(=O)(=O)Nc1cc([C@@H](O)CNC2CCN(c3ccc(C(=O)O)cc3)CC2)ccc1O`, the EC50 is 48700 nM in [4], 220 nM in [7] and > 50000 nM in [5].

For the compound `CS(=O)(=O)Nc1cc([C@@H](O)CNC2CCN(c3ccc(CCC(=O)O)cc3)CC2)ccc1O`, the EC50 in experiment [6] was 9800 nM; in experiment [7] it was 39 nM; in [5], 4700 nM.

Regarding `CS(=O)(=O)Nc1cc([C@@H](O)CNC2CCN(c3ccc(C(N)=O)cc3)CC2)ccc1O`, the EC50 stood at 1200 nM in experiment [6], 20 nM in [7] and 270 nM in experiment [5].

Take `CC(C)[C@H](NC(=O)c1ccc(N2CCC(NC[C@H](O)c3ccc(O)c(NS(C)(=O)=O)c3)CC2)cc1)C(=O)O`: the Ki in experiment [1] was > 100000 nM; in experiment [2], 3600 nM. For the same compound, the EC50 in experiment [6] is > 10000 nM; in experiment [7], 26 nM; in experiment [5], > 10000 nM.

For the compound `CCCCN(CC(=O)O)C(=O)c1ccc(N2CCC(NC[C@H](O)c3ccc(O)c(NS(C)(=O)=O)c3)CC2)cc1`, the figures for the EC50 in [6], in [7] and in [5] were > 1000 nM, 36 nM and 10500 nM, respectively.

For the compound `CS(=O)(=O)Nc1cc([C@@H](O)CNC2CCN(c3ccc(NC(=O)CC(=O)O)cc3)CC2)ccc1O`, the figures for the EC50 in experiment [6], in experiment [7] and in experiment [5] were 100 nM, 130 nM and 900 nM, respectively.

`CCCCN(C(=O)CC(=O)O)c1ccc(N2CCC(NC[C@H](O)c3ccc(O)c(NS(C)(=O)=O)c3)CC2)cc1`: the Ki in experiment [1] and in [2] was > 100000 nM in each case. In addition, the Thermogenesis in experiment [3] turned out to be 35%. Moreover, the values for the EC50 in experiment [6], in [7] and in experiment [5] were 40 nM, 9 nM and 60 nM, respectively.

In turn, `CS(=O)(=O)Nc1cc([C@@H](O)CNC2CCN(c3ccc(C(=O)N[C@@H](CCC(=O)O)C(=O)O)cc3)CC2)ccc1O` yielded a 50% effective concentration (EC50) in experiment [7] of 92 nM.

In the case of `CS(=O)(=O)Nc1cc([C@@H](O)CNC2CCN(c3ccc(C(=O)N[C@@H](Cc4ccccc4)C(=O)O)cc3)CC2)ccc1O`, the results for the Ki in [1] and in experiment [2] were > 100000 nM and 480 nM, respectively. Besides, the EC50 is 43700 nM in [6] and 1500 nM in experiment [5].

In [7], `CS(=O)(=O)Nc1cc([C@@H](O)CNC2CCN(c3ccc(CC(=O)O)cc3)CC2)ccc1O` gave an EC50 of 270 nM.

`CS(=O)(=O)Nc1cc([C@@H](O)CNC2CCN(c3ccc(C(=O)NCCC(=O)O)cc3)CC2)ccc1O` came in with an EC50 in experiment [7] of 260 nM.
